Earlier results in patent US4528378A, “Substituted 3,4-diamino-1,2,5-thiadiazoles having histamine H2 -receptor antagonist activity” (Bristol-Myers Company, priority 1984, dated 1985).

Test system: peptic ulcer disease
Conditions: Gray et al., Lancet, 1, 8001 (1977)

SMILES: CN/C(=N/CCSCc1nc[nH]c1C)NC#N [cimetidine]
- clinical efficacy in treatment of peptic ulcer disease: effective therapeutic agent in the treatment of peptic ulcer disease
